Laboratory results from ChEMBL document CHEMBL1145722, “Triterpene saponins from Cyclamen mirabile and their biological activities” (1997).
Values after ≈ are worked out from the molar mass of the structure shown.

How the values were obtained:
Assay type in all cases: functional
[1] = Uterocontractile activity in rat uterus assessed as contraction at 7.4 uM relative to acetylcholine
Candida albicans [2] = test: Antifungal activity against Candida albicans by microtiter-tube dilution method
Kluyveromyces marxianus = test: Antifungal activity against Candida pseudotropicalis by microtiter-tube dilution method
Escherichia coli = test: Antibacterial activity against Escherichia coli ATCC 25922 by microtiter-tube dilution method
Staphylococcus aureus = test: Antibacterial activity against Staphylococcus aureus ATCC 29213 by microtiter-tube dilution method
Candida tropicalis = test: Antifungal activity against Candida tropicalis by microtiter-tube dilution method
Pichia kudriavzevii = test: Antifungal activity against Candida krusei by microtiter-tube dilution method
Candida parapsilosis = test: Antifungal activity against Candida parapsilosis by microtiter-tube dilution method; details: Lodderomyces parapsilosis
Pseudomonas aeruginosa = test: Antibacterial activity against Pseudomonas aeruginosa ATCC 27853 by microtiter-tube dilution method
Cryptococcus neoformans = test: Antifungal activity against Cryptococcus neoformans by microtiter-tube dilution method
Candida albicans [3] = test: Antifungal activity against Candida stellatoidea by microtiter-tube dilution method
Enterococcus faecalis = test: Antibacterial activity against Enterococcus faecalis ATCC 29212 by microtiter-tube dilution method
[4] = Uterocontractile activity in rat uterus assessed as contraction at 8.6 uM relative to acetylcholine
[5] = Uterocontractile activity in rat uterus assessed as contraction at 6.5 uM relative to acetylcholine
[6] = Uterocontractile activity in rat uterus assessed as contraction at 7.5 uM relative to acetylcholine
[7] = Uterocontractile activity in rat uterus assessed as contraction at 20 uM relative to acetylcholine
[8] = Uterocontractile activity in rat uterus assessed as contraction at 19 uM relative to acetylcholine
[9] = Uterocontractile activity in rat uterus assessed as contraction at 6.4 uM relative to acetylcholine

Q: What does the source list for `C[C@]1(C=O)CC[C@]23CO[C@@]4(CC[C@@H]5[C@@]6(C)CC[C@H](O[C@@H]7OC[C@H](O[C@@H]8O[C@H](CO)[C@@H](O)[C@H](O)[C@H]8O[C@@H]8OC[C@H](O)[C@H](O)[C@H]8O)[C@H](O)[C@H]7O[C@@H]7O[C@H](CO)[C@@H](O)[C@H](O)[C@H]7O)[C@@](C)(CO)[C@@H]6CC[C@@]5(C)[C@]4(C)C[C@H]2O)[C@@H]3C1` [CYCLACOUMIN]?
A: Activity [1]: 58.2%; MIC (Candida albicans [2]): 160 µg/mL (≈ 149 µM); MIC (Kluyveromyces marxianus): 160 µg/mL (≈ 149 µM); MIC (Escherichia coli): > 400 µg/mL; MIC (Staphylococcus aureus): > 400 µg/mL; MIC (Candida tropicalis): 160 µg/mL (≈ 149 µM); MIC (Pichia kudriavzevii): > 320 µg/mL; MIC (Candida parapsilosis): 80 µg/mL (≈ 74.3 µM); MIC (Pseudomonas aeruginosa): > 400 µg/mL; MIC (Cryptococcus neoformans): 80 µg/mL (≈ 74.3 µM); MIC (Candida albicans [3]): 160 µg/mL (≈ 149 µM); MIC (Enterococcus faecalis): > 400 µg/mL

Q: What does the source list for `CC1(C)[C@@H](O[C@@H]2OC[C@H](O[C@@H]3O[C@H](CO)[C@@H](O)[C@H](O)[C@H]3O)[C@H](O)[C@H]2O[C@@H]2O[C@H](CO)[C@@H](O)[C@H](O)[C@H]2O)CC[C@]2(C)[C@H]3CC[C@]45OC[C@@]6(CC[C@](C)(C=O)C[C@H]64)[C@H](O)C[C@@]5(C)[C@]3(C)CC[C@@H]12` [CYCLAMINORIN]?
A: MIC (Candida albicans [2]): 160 µg/mL (≈ 172 µM); Activity [4]: 46.2%; MIC (Kluyveromyces marxianus): 160 µg/mL (≈ 172 µM); MIC (Escherichia coli): > 400 µg/mL; MIC (Staphylococcus aureus): > 400 µg/mL; MIC (Candida tropicalis): 160 µg/mL (≈ 172 µM); MIC (Pichia kudriavzevii): > 320 µg/mL; MIC (Candida parapsilosis): 80 µg/mL (≈ 86.1 µM); MIC (Pseudomonas aeruginosa): > 400 µg/mL; MIC (Cryptococcus neoformans): 80 µg/mL (≈ 86.1 µM); MIC (Candida albicans [3]): 160 µg/mL (≈ 172 µM); MIC (Enterococcus faecalis): > 400 µg/mL

Q: Which MIC (Escherichia coli) does the source give for `CC1(C)[C@@H](O[C@@H]2OC[C@H](O[C@@H]3O[C@H](CO)[C@@H](O)[C@H](O[C@@H]4O[C@H](CO)[C@@H](O)[C@H](O)[C@H]4O)[C@H]3O[C@@H]3OC[C@@H](O)[C@H](O)[C@H]3O)[C@H](O)[C@H]2O[C@@H]2O[C@H](CO)[C@@H](O)[C@H](O)[C@H]2O)CC[C@]2(C)[C@H]3CC[C@]45OC[C@@]6(CC[C@](C)(C=O)C[C@H]64)[C@H](O)C[C@@]5(C)[C@]3(C)CC[C@@H]12` [CYCLAMIN] here?
A: > 400 µg/mL

Q: And the MIC (Staphylococcus aureus)?
A: > 400 µg/mL

Q: And the MIC (Pseudomonas aeruginosa)?
A: > 400 µg/mL

Q: What about the MIC (Enterococcus faecalis) of the same compound?
A: > 400 µg/mL

Q: And the Activity [5]?
A: 48.4%

Q: What does the source list for `CC1(C)[C@@H](O[C@@H]2OC[C@H](O[C@@H]3O[C@H](CO)[C@@H](O)[C@H](O)[C@H]3O[C@@H]3OC[C@H](O)[C@H](O)[C@H]3O)[C@H](O)[C@H]2O[C@@H]2O[C@H](CO)[C@@H](O)[C@H](O)[C@H]2O)CC[C@]2(C)[C@H]3CC[C@]45OC[C@@]6(CC[C@](C)(C=O)C[C@H]64)[C@H](O)C[C@@]5(C)[C@]3(C)CC[C@@H]12` [DEGLUCOCYCLAMIN]?
A: MIC (Candida albicans [2]): 160 µg/mL (≈ 151 µM); MIC (Kluyveromyces marxianus): 160 µg/mL (≈ 151 µM); MIC (Escherichia coli): > 400 µg/mL; Activity [6]: 36.7%; MIC (Staphylococcus aureus): > 400 µg/mL; MIC (Candida tropicalis): 160 µg/mL (≈ 151 µM); MIC (Pichia kudriavzevii): > 320 µg/mL; MIC (Candida parapsilosis): 80 µg/mL (≈ 75.4 µM); MIC (Pseudomonas aeruginosa): > 400 µg/mL; MIC (Cryptococcus neoformans): 80 µg/mL (≈ 75.4 µM); MIC (Candida albicans [3]): 160 µg/mL (≈ 151 µM); MIC (Enterococcus faecalis): > 400 µg/mL

Q: What does the source list for `CC1(C)[C@@H](O[C@@H]2OC[C@H](O[C@@H]3O[C@H](CO[C@@H]4O[C@H](CO)[C@@H](O)[C@H](O)[C@H]4O)[C@@H](O)[C@H](O)[C@H]3O[C@@H]3OC[C@H](O)[C@H](O)[C@H]3O)[C@H](O)[C@H]2O[C@@H]2O[C@H](CO)[C@@H](O)[C@H](O)[C@H]2O)CC[C@]2(C)[C@H]3CC[C@]45OC[C@@]6(CC[C@](C)(C=O)C[C@H]64)[C@H](O)C[C@@]5(C)[C@]3(C)CC[C@@H]12` [ISOCYCLAMIN]?
A: Activity [7]: 28.3%; MIC (Escherichia coli): > 400 µg/mL; MIC (Staphylococcus aureus): > 400 µg/mL; MIC (Pseudomonas aeruginosa): > 400 µg/mL; MIC (Enterococcus faecalis): > 400 µg/mL; Activity [5]: 0.1%

Q: With `CC1(C)[C@@H](O[C@@H]2OC[C@H](O[C@@H]3O[C@H](CO[C@@H]4O[C@H](CO)[C@@H](O)[C@H](O)[C@H]4O)[C@@H](O)[C@H](O)[C@H]3O[C@@H]3OC[C@H](O)[C@H](O)[C@H]3O)[C@H](O)[C@H]2O[C@@H]2O[C@H](CO)[C@@H](O)[C@H](O)[C@H]2O)CC[C@]2(C)[C@H]3CC=C4[C@@H]5C[C@]6(C)CC[C@]5(COC6=O)[C@H](O)C[C@@]4(C)[C@]3(C)CC[C@@H]12` [MIRABILIN LACTONE] as the compound, how does the Activity [7] read?
A: 5.7%

Q: And the MIC (Escherichia coli)?
A: > 400 µg/mL

Q: What about the MIC (Staphylococcus aureus) of the same compound?
A: > 400 µg/mL

Q: And the MIC (Pseudomonas aeruginosa)?
A: > 400 µg/mL

Q: And the MIC (Enterococcus faecalis)?
A: > 400 µg/mL

Q: And the Activity [5]?
A: 0.6%

Q: Which results are given for `CC1(C)[C@@H](O[C@@H]2OC[C@H](O[C@@H]3O[C@H](CO[C@@H]4O[C@H](CO)[C@@H](O)[C@H](O)[C@H]4O)[C@@H](O)[C@H](O)[C@H]3O[C@@H]3OC[C@H](O)[C@H](O)[C@H]3O)[C@H](O)[C@H]2O[C@@H]2O[C@H](CO)[C@@H](O)[C@H](O)[C@H]2O)CC[C@]2(C)[C@H]3CC=C4[C@@H]5C[C@@](C)(C(=O)O)CC[C@]5(CO)[C@H](O)C[C@@]4(C)[C@]3(C)CC[C@@H]12` [MIRABILIN]?
A: MIC (Escherichia coli): > 400 µg/mL; Activity [8]: 1.1%; Activity [9]: 0.7%; MIC (Staphylococcus aureus): > 400 µg/mL; MIC (Pseudomonas aeruginosa): > 400 µg/mL; MIC (Enterococcus faecalis): > 400 µg/mL
